Results taken from PMC10872706 (The FEBS journal, 2023).
“And” between values parts separate entries of the source, which are not always exact repeats. Identical values can stand only once. Like-named read-outs stand apart in the source and are kept apart here.

Assays:
E. coli PdxI [1] = target: T1, E. coli PdxI (Escherichia coli, UniProt P25906); assay: Reactions catalysed by PdxI, discontinuous assay with HPLC quantification; format: biochemical
T1 sequence (P25906 1-286): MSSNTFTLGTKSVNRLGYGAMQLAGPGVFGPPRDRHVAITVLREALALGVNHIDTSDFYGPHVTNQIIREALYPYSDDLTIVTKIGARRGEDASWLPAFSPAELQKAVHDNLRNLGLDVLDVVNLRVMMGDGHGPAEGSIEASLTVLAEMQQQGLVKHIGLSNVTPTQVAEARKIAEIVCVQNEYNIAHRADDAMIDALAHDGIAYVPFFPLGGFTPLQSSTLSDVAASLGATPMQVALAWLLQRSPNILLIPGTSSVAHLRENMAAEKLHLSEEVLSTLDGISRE

E. coli PdxI [2] = target: T1, E. coli PdxI; assay: Differential scanning fluorimetry; format: binding; settings: for effect on thermal stability (Tm) when added alone: vitamers 100 μM, NAD+ or NADH 400 μM; for effect on thermal stability (Tm) when added alone / Kd: 2 μM PdxI; for increase of thermal stability: increasing concentrations of dinucleotide; for Kd: read-out: apparent dissociation constant, from changes of Tm as a function of NADP(H) concentration, 20 mM KPi pH 7.3; for further change of Tm on adding vitamer to pre-incubated PdxI and dinucleotide: 200 μM vitamer, PL added to PdxI-NAD(P)+, PN to PdxI-NAD(P)H
E. coli PdxI [3] = target: T1, E. coli PdxI; assay: Isothermal titration calorimetry; format: binding
E. coli PdxI [4] = target: T1, E. coli PdxI; assay: Spectrophotometric kinetic characterisation of PdxI; settings: for type of product inhibition with respect to NADPH: NADPH varied, PL fixed at 38 μM
[5] = test system: E. coli BW25113 pdxI knock out strain; format: cell-based, Escherichia coli; settings: for beneficial effect of low concentrations on growth: low concentrations in M9 medium
[6] = test system: E. coli BW25113 wild type; format: cell-based, Escherichia coli
PdxK = settings: cited from earlier work
[7] = test system: E. coli BW25113 wild type; assay: B6 vitamer levels in cell extracts by HPLC, wild type; format: cell-based, Escherichia coli
[8] = test system: E. coli BW25113 pdxI knock out strain; format: cell-based, Escherichia coli
[9] = test system: E. coli pdxK, pdxY, pdxKY knock out strains; format: cell-based, Escherichia coli; settings: M9 medium, all these strains
E. coli BW25113 cells = assay: RT-qPCR relative expression of vitamin B6 metabolism genes; format: cell-based, Escherichia coli; settings: 0.1 mM vitamer in M9, relative to M9 = 100%; for Expression level of pdxI: (*) P < 0.01
E. coli PdxI [10] = target: T1, E. coli PdxI; settings: in vitro; cited from earlier work
[11] = ligand alone titrated into PdxI
[12] = ligand alone titrated into PdxI (binary complex)
[13] = ligand alone titrated into PdxI, 20°C, pH 7.4, NB = non-binding ligand
[14] = PL added to pre-incubated mixture of PdxI and NADPH (ternary complex)
[15] = medium supplemented with 1.5 mM PL
[16] = medium supplemented with 0.1 mM PN

NC(=O)C1=CN([C@@H]2O[C@H](COP(=O)(O)OP(=O)(O)OC[C@H]3O[C@@H](n4cnc5c(N)ncnc54)[C@H](O)[C@@H]3O)[C@@H](O)[C@H]2O)C=CC1 [NADH]
reaction rate with PL and NADH relative to that with NADPH (E. coli PdxI [1]; 200 μM PL, 400 μM dinucleotide): 10 times slower
effect on thermal stability (Tm) when added alone (E. coli PdxI [2]): no effect

NC(=O)C1=CN([C@@H]2O[C@H](COP(=O)(O)OP(=O)(O)OC[C@H]3O[C@@H](n4cnc5c(N)ncnc54)[C@H](OP(=O)(O)O)[C@@H]3O)[C@@H](O)[C@H]2O)C=CC1 [NADPH, reduced nicotinamide adenine dinucleotide phosphate]
N value (E. coli PdxI [3]; [11]): 1.13 ± 0.05
ΔH (E. coli PdxI [3]; [12]): -2.964 ± 0.0335 kcal/mol
ΔS (E. coli PdxI [3]; [12]): −18 ± 1 J mol^−1/deg
Kd (E. coli PdxI [3]; [13]): 4.2 ± 0.35 µM
Km (E. coli PdxI [4]; PL reduction to PN by NADPH, 37 °C, 20 mM KPi pH 7.3, 0.05 μM PdxI): 12 ± 4 µM
increase of thermal stability (E. coli PdxI [2]): up to 9 °C
Kd (E. coli PdxI [2]): 81 ± 16 µM

NC(=O)c1ccc[n+]([C@@H]2O[C@H](COP(=O)([O-])OP(=O)(O)OC[C@H]3O[C@@H](n4cnc5c(N)ncnc54)[C@H](OP(=O)(O)O)[C@@H]3O)[C@@H](O)[C@H]2O)c1 [NADP^+, oxidised nicotinamide adenine dinucleotide phosphate]
N value (E. coli PdxI [3]; [11]): 0.99 ± 0.09
ΔH (E. coli PdxI [3]; [12]): -5.16 ± 0.134 kcal/mol
ΔS (E. coli PdxI [3]; [12]): −54 ± 2 J mol^−1/deg
Kd (E. coli PdxI [3]; [13]): 46.3 ± 1.97 µM
type of product inhibition with respect to NADPH (E. coli PdxI [4]): competitive inhibitor
increase of thermal stability (E. coli PdxI [2]): up to 9 °C
Kd (E. coli PdxI [2]): 856 ± 490 µM

NC(=O)c1ccc[n+]([C@@H]2O[C@H](COP(=O)([O-])OP(=O)(O)OC[C@H]3O[C@@H](n4cnc5c(N)ncnc54)[C@H](O)[C@@H]3O)[C@@H](O)[C@H]2O)c1 [NAD^+]
effect on thermal stability (Tm) when added alone (E. coli PdxI [2]): no effect

Cc1ncc(CO)c(C=O)c1O [PL, pyridoxal]
Kd (E. coli PdxI [3]): 0.024 ± 0.01 µM
N value (E. coli PdxI [3]; PL added to pre-incubated 1:1 mixture of PdxI and NADPH): 0.61 and 0.61 ± 0.02
ΔH (E. coli PdxI [3]; [14]): -0.884 ± 0.0359 kcal/mol
ΔS (E. coli PdxI [3]; [14]): 22 ± 1 J mol^−1/deg
PL converted into PN at equilibrium (E. coli PdxI [1]; 200 μM PL, 400 μM NADH, 0.2 μM PdxI): 98.3 ± 2.6%
PL converted into PN at equilibrium (E. coli PdxI [1]; 200 μM PL, 400 μM NADPH, 0.2 μM PdxI): 96 ± 1.7%
effect on bacterial growth ([5]; 1 mM in M9 medium): toxicity
effect on bacterial growth ([5]; 2 mM in M9 medium): nearly arrested
beneficial effect of low concentrations on growth [5]: not visible
effect on growth ([6]; up to 0.1 mM in M9 medium): beneficial
effect on growth ([6]; up to 1 mM in M9 medium): abolish this beneficial effect
kcat of PdxK (PdxK; PL as substrate): 2.3 s⁻¹
Km (PdxK; read-out: KM for PL of PdxK): 100 µM
increase of PL levels [7, 15]: about 800 fold
increase of PL levels [8, 15]: about 3400 fold
concentration at which PL toxicity is observed [9]: ≥ 1400 µM
Expression level of pdxB (E. coli BW25113 cells): 97%
Expression level of pdxH (E. coli BW25113 cells): 110%
Expression level of pdxJ (E. coli BW25113 cells): 86%
Expression level of pdxK (E. coli BW25113 cells): 105%
Expression level of pdxY (E. coli BW25113 cells): 118%
Expression level of ybhA (E. coli BW25113 cells): 110%
Expression level of pdxI (E. coli BW25113 cells): 134% (*)
further change of Tm on adding vitamer to pre-incubated PdxI and dinucleotide (E. coli PdxI [2]): did not further increase Tm
effect on thermal stability (Tm) when added alone (E. coli PdxI [2]): no effect

Cc1ncc(COP(=O)(O)O)c(C=O)c1O [PLP, Pyridoxal 5’-phosphate]
conversion of PLP into PNP (E. coli PdxI [1]; 200 μM PLP, 400 μM NADPH, 0.2 μM PdxI): apparently complete
activity of PdxI with the substrate (E. coli PdxI [10]): no detectable activity
Km (E. coli PdxI [4]; PLP reduction to PNP by NADPH): > 1200 µM
effect on thermal stability (Tm) when added alone (E. coli PdxI [2]): no effect

Cc1ncc(CO)c(CN)c1O [PM, pyridoxamine]
conversion of PM to PL (E. coli PdxI [1]; NADP+ as electron acceptor): could not be detected
activity of PdxI with the substrate (E. coli PdxI [10]): no detectable activity

Cc1ncc(CO)c(CO)c1O [PN, pyridoxine]
PN converted to PL (reverse reaction) (E. coli PdxI [1]; 200 μM PN, 400 μM NADP+, 1 μM PdxI): 5 ± 1.3%
beneficial effect of low concentrations on growth [5]: not visible
type of product inhibition with respect to NADPH (E. coli PdxI [4]): mixed inhibition
effect on growth ([6]; up to 1 mM in M9 medium): beneficial effect
rise of PLP levels [7, 16]: 1.5 fold
rise of PLP levels [8, 16]: 1.8 fold
Expression level of pdxB (E. coli BW25113 cells): 103%
Expression level of pdxH (E. coli BW25113 cells): 95%
Expression level of pdxJ (E. coli BW25113 cells): 88%
Expression level of pdxK (E. coli BW25113 cells): 107%
Expression level of pdxY (E. coli BW25113 cells): 115%
Expression level of ybhA (E. coli BW25113 cells): 108%
Expression level of pdxI (E. coli BW25113 cells): 98%
further change of Tm on adding vitamer to pre-incubated PdxI and dinucleotide (E. coli PdxI [2]): did not further increase Tm
effect on thermal stability (Tm) when added alone (E. coli PdxI [2]): no effect
